Assay results as given in US8343963B2, “Sulfamoyl-phenyl-ureido compounds and their use as medicament” (4SC AG, priority 2009, dated 2013).

System: multiresistant Dd2 strain of Plasmodium falciparum
Assay: Antiplasmodial activity against Dd2 strain of Plasmodium falciparum ([8-3H]hypoxanthine incorporation)
Assay type: cell-based
Settings: 66 h, P. falciparum Dd2, 48 h + 18 h with [8-3H]hypoxanthine, 50% parasite growth inhibition, read-out: Antiplasmodia activity (IC50 class)
Procedure: For the determination of the antiplasmodial activity of the compounds described above, the multiresistant Dd2 strain of Plasmodium falciparum was used. The incorporation of [8-^3H]hypoxanthine into the parasitic nucleic acids was measured. The plasmodia were incubated at 0.3% parasitaemia and an erythrocyte haematocrit of 2.5% in the presence of different concentrations of the compounds in a final volume of 200 μl. The medium employed was RPMI 1640 which contained 10% of heat-treated human serum and 3 mg/l of gentamycin. In the incubations, the concentrations of the compounds varied from 0.001 to 100 μM. After 48 h, each batch was treated with 50 μl of [8-^3H]hypoxanthine (1 mCi/ml) and incubated for a further 18 h. The cells were filtered off, washed and suspended in 20 μl of scintillation fluid. The radioactive hypoxanthine absorbed by the parasites was then quantified using a scintillation counter. The results were presented graphically and the IC50 value was determined using a fitting function. The value IC50, the ‘inhibition constant’, indicates the value in μMol/l at which 50% parasite growth inhibition occurs (R. E. Desjardins, et al., Antimicrobiol. Agent Chemother. 16, pp. 710-718, 1979; J. D. Chulay, et al., Exp. Parasitol. 55, pp. 138-146, 1983).

| SMILES | IC50 [nM] |
| --- | --- |
| C=CCN1CCN(C(=N)c2cccc(NC(=O)Nc3ccc(S(=O)(=O)NCc4ccc(S(N)(=O)=O)cc4)cc3)c2)CC1 [Compound 39, 4-(3-(3-((4-allylpiperazin-1-yl)(imino)methyl)phenyl)ureido)-N-(4-sulfamoylbenzyl)benzenesulfonamide] | < 20 |
| CCN(CC)CCN(C)C(=N)c1cccc(NC(=O)Nc2ccc(S(=O)(=O)NCc3ccc(S(N)(=O)=O)cc3)cc2)c1 [Compound 47, N-(2-(diethylamino)ethyl)-N-methyl-3-(3-(4-(N-(4-sulfamoylbenzyl)sulfamoyl)phenyl)ureido)benzimidamide] | 20 to 200 |
| N=C(c1cccc(NC(=O)Nc2ccc(S(=O)(=O)NCc3ccc(S(N)(=O)=O)cc3)cc2)c1)N1CCN(Cc2ccncc2)CC1 [Compound 45, 4-(3-(3-(imino (4-(pyridin-4-ylmethyl)piperazin-1-yl)methyl)phenyl)ureido)-N-(4-sulfamoylbenzyl)benzenesulfonamide] | 210 to 990 |
| N=C(c1cccc(NC(=O)Nc2ccc(S(=O)(=O)c3ccc(Br)cc3)cc2)c1)N1CCCC1 [Compound 15, 1-(4-(4-bromophenylsulfonyl)phenyl)-3-(3-(imino(pyrrolidin-1-yl)methyl)phenyl)urea] | 20 to 200 |
| N=C(c1cccc(NC(=O)Nc2ccc(S(=O)(=O)NCc3ccc(S(N)(=O)=O)cc3)cc2)c1)N1CCC(C(N)=O)CC1 [Compound 33, 1-(imino(3-(3-(4-(N-(4-sulfamoylbenzyl)sulfamoyl)-phenyl)ureido)phenyl)methyl)piperidine-4-carboxamide] | 20 to 200 |
| CCCCN1CCN(C(=N)c2cccc(NC(=O)Nc3ccc(S(=O)(=O)NCc4c(F)ccc(F)c4F)cc3)c2)CC1 [Compound 35, 4-(3-(3-((4-butylpiperazin-1-yl)(imino)methyl)phenyl)ureido)-N-(2,3,6-trifluorobenzyl)benzenesulfonamide] | 210 to 990 |
| CCCCN1CCN(C(=N)c2cccc(NC(=O)Nc3ccc(S(=O)(=O)NCCC)cc3)c2)CC1 [Compound 19, 4-(3-(3-((4-butylpiperazin-1-yl)(imino)methyl)phenyl)ureido)-N-propylbenzenesulfonamide] | ≥ 1000 |
| CCCCN1CCN(C(=N)c2cccc(NC(=O)Nc3ccc(S(=O)(=O)Nc4ccnc5cc(Cl)ccc45)cc3)c2)CC1 [Compound 22, 4-(3-(3-((4-butylpiperazin-1-yl)(imino)methyl)phenyl)ureido)-N-(7-chloroquinolin-4-yl)benzenesulfonamide] | ≥ 1000 |
| N=C(c1cccc(NC(=O)Nc2ccc(S(=O)(=O)NCc3ccc(S(N)(=O)=O)cc3)cc2)c1)N1CCCC1 [Compound 46, 4-(3-(3-(imino(pyrrolidin-1-yl)methyl)phenyl)ureido)-N-(4-sulfamoylbenzyl)benzenesulfonamide] | 20 to 200 |
| CCCOC(=O)N1CCN(C(=N)c2cccc(NC(=O)Nc3ccc(S(=O)(=O)NCc4ccc(S(N)(=O)=O)cc4)cc3)c2)CC1 [Compound 62, propyl 4-(imino(3-(3-(4-(N-(4-sulfamoylbenzyl)sulfamoyl)phenyl)ureido)phenyl)methyl)piperazine-1-carboxylate] | < 20 |
| N=C(c1cccc(NC(=O)Nc2ccc(S(=O)(=O)NCc3ccc(S(N)(=O)=O)cc3)cc2)c1)N1CCN(CC2CCCO2)CC1 (stereo not drawn) [Compound 68, 4-(3-(3-(imino(4-((tetrahydrofuran-2-yl)methyl)piperazin-1-yl)methyl)phenyl)ureido)-N-(4-sulfamoylbenzyl)benzene sulfonamide] | 20 to 200 |
| N=C(c1cccc(NC(=O)Nc2ccc(S(N)(=O)=O)cc2)c1)N1CCC(O)CC1 [Compound 2, 4-(3-(3-((4-hydroxypiperidin-1-yl)(imino)methyl)phenyl)ureido)benzenesulfonamide] | ≥ 1000 |
| N=C(c1cccc(NC(=O)Nc2ccc(S(=O)(=O)NCc3ccc(S(N)(=O)=O)cc3)cc2)c1)N1CCN(CC2OCCO2)CC1 [Compound 67, 4-(3-(3-((4-((1,3-dioxolan-2-yl)methyl)piperazin-1-yl)(imino)methyl)phenyl)ureido)-N-(4-sulfamoylbenzyl)benzene sulfonamide] | 20 to 200 |
| N=C(c1cccc(NC(=O)Nc2ccc(S(=O)(=O)c3ccc(Br)cc3)cc2)c1)N1CCC(CO)CC1 [Compound 12, 1-(4-(4-bromophenylsulfonyl)phenyl)-3-(3-((4-(hydroxymethyl)piperidin-1-yl)(imino)methyl)phenyl)urea] | ≥ 1000 |
| CCCCCCCN1CCN(C(=N)c2cccc(NC(=O)Nc3ccc(S(=O)(=O)NCc4ccc(S(N)(=O)=O)cc4)cc3)c2)CC1 [Compound 56, 4-(3-(3-((4-heptylpiperazin-1-yl)(imino)methyl)phenyl)ureido)-N-(4-sulfamoylbenzyl)benzenesulfonamide] | 20 to 200 |
| N=C(c1cccc(NC(=O)Nc2ccc(S(=O)(=O)c3ccc(Br)cc3)cc2)c1)N1CCC(O)CC1 [Compound 5, 1-(4-(4-bromophenylsulfonyl)phenyl)-3-(3-((4-hydroxypiperidin-1-yl)(imino)methyl)phenyl)urea] | 20 to 200 |
| N=C(c1cccc(NC(=O)Nc2ccc(S(=O)(=O)c3ccc([N+](=O)[O-])cc3)cc2)c1)N1CCOCC1 [Compound 6, 1-(3-(imino(morpholino)methyl)phenyl)-3-(4-(4-nitrophenylsulfonyl)phenyl)urea] | 20 to 200 |
| N=C(c1cccc(NC(=O)Nc2ccc(S(=O)(=O)NCc3ccc(S(N)(=O)=O)cc3)cc2)c1)N1CCCC1CN1CCCC1 (stereo not drawn) [Compound 50, 4-(3-(3-(imino(2-(pyrrolidin-1-ylmethyl)pyrrolidin-1-yl)methyl)phenyl)ureido)-N-(4-sulfamoylbenzyl)benzenesulfonamide] | 20 to 200 |
| N=C(c1cccc(NC(=O)Nc2ccc(S(=O)(=O)c3ccc([N+](=O)[O-])cc3)cc2)c1)N1CCSC1 [Compound 9, 1-(3-(imino(thiazolidin-3-yl)methyl)phenyl)-3-(4-(4-nitrophenylsulfonyl)phenyl)urea] | ≥ 1000 |
| CCCCN1CCN(C(=N)c2ccc(NC(=O)Nc3ccc(S(=O)(=O)NCc4ccc(S(N)(=O)=O)cc4)cc3)cc2)CC1 [Compound 71, 4-(3-(4-((4-butylpiperazin-1-yl)(imino)methyl)phenyl)ureido)-N-(4-sulfamoylbenzyl)benzene sulfonamide] | 20 to 200 |
| N=C(c1cccc(NC(=O)Nc2ccc(S(=O)(=O)c3ccc(Cl)cc3)cc2)c1)N1CCC(O)CC1 [Compound 11, 1-(4-(4-chlorophenylsulfonyl)phenyl)-3-(3-((4-hydroxypiperidin-1-yl)(imino)methyl)phenyl)urea] | 20 to 200 |
| CN1CCN(C(=N)c2cccc(NC(=O)Nc3ccc(S(=O)(=O)c4ccc([N+](=O)[O-])cc4)cc3)c2)CC1 [Compound 8, 1-(3-(imino(4-methylpiperazin-1-yl)methyl)phenyl)-3-(4-(4-nitrophenylsulfonyl)phenyl)urea] | ≥ 1000 |
| N=C(c1cccc(NC(=O)Nc2ccc(S(=O)(=O)NCc3ccc(S(N)(=O)=O)cc3)cc2)c1)N1CCC(CO)CC1 [Compound 29, 4-(3-(3-((4-(hydroxymethyl)piperidin-1-yl)(imino)methyl)phenyl)ureido)-N-(4-sulfamoylbenzyl)benzenesulfonamide] | 210 to 990 |
| N=C(c1cccc(NC(=O)Nc2ccc(S(=O)(=O)NCc3ccc(S(N)(=O)=O)cc3)cc2)c1)N1CCC(=O)CC1 [Compound 27, 4-(3-(3-(imino(4-oxopiperidin-1-yl)methyl)phenyl)ureido)-N-(4-sulfamoylbenzyl)benzenesulfonamide] | 210 to 990 |
| N=C(c1cccc(NC(=O)Nc2ccc(S(N)(=O)=O)cc2)c1)N1CCNCC1 [Compound 3, 4-(3-(3-(imino(piperazin-1-yl)methyl)phenyl)ureido)benzenesulfonamide] | ≥ 1000 |
| CN1CCN(C(=N)c2cccc(NC(=O)Nc3ccc(S(=O)(=O)Nc4ccc(S(N)(=O)=O)cc4)cc3)c2)CC1 [Compound 26, 4-(3-(3-(imino(4-methylpiperazin-1-yl)methyl)phenyl)ureido)-N-(4-sulfamoylphenyl)benzenesulfonamide] | ≥ 1000 |
| CCCCN1CCN(C(=N)c2cccc(NC(=O)Nc3ccc(S(=O)(=O)NC(C)c4ccc(S(N)(=O)=O)cc4)cc3)c2)CC1 (stereo not drawn) [Compound 42, 4-(3-(3-((4-butylpiperazin-1-yl)(imino)methyl)phenyl)ureido)-N-(1-(4-sulfamoylphenyl)ethyl)benzenesulfonamide] | 210 to 990 |
| CCOC(=O)N1CCN(C(=N)c2cccc(NC(=O)Nc3ccc(S(=O)(=O)NCc4ccc(S(N)(=O)=O)cc4)cc3)c2)CC1 [Compound 61, ethyl 4-(imino(3-(3-(4-(N-(4-sulfamoylbenzyl)sulfamoyl)phenyl)ureido)phenyl)methyl)piperazine-1-carboxylate] | < 20 |
| CCCCN1CCN(C(=N)c2cccc(NC(=O)Nc3ccc(S(=O)(=O)N4CCOCC4)cc3)c2)CC1 [Compound 21, 1-(3-((4-butylpiperazin-1-yl)(imino)methyl)phenyl)-3-(4-(morpholinosulfonyl)phenyl)urea] | ≥ 1000 |
| N=C(c1cccc(NC(=O)Nc2ccc(S(=O)(=O)NCc3ccc(S(N)(=O)=O)cc3)cc2)c1)N1CCN(CCO)CC1 [Compound 28, 4-(3-(3-((4-(2-hydroxyethyl)piperazin-1-yl)(imino)methyl)phenyl)ureido)-N-(4-sulfamoylbenzyl)benzenesulfonamide] | 20 to 200 |
